Test results as given in BindingDB's records for doi:10.1021/acs.jmedchem.6b01566 (Glaxosmithkline, 2017).

Molecular target: Histone acetyltransferase KAT2B (Homo sapiens, UniProt Q92831)
Assay: Binding affinity to human partial length PCAF bromodomain expressed in mammalian expression system by BROMOscan method

Chain of Histone acetyltransferase KAT2B (Q92831 whole entry): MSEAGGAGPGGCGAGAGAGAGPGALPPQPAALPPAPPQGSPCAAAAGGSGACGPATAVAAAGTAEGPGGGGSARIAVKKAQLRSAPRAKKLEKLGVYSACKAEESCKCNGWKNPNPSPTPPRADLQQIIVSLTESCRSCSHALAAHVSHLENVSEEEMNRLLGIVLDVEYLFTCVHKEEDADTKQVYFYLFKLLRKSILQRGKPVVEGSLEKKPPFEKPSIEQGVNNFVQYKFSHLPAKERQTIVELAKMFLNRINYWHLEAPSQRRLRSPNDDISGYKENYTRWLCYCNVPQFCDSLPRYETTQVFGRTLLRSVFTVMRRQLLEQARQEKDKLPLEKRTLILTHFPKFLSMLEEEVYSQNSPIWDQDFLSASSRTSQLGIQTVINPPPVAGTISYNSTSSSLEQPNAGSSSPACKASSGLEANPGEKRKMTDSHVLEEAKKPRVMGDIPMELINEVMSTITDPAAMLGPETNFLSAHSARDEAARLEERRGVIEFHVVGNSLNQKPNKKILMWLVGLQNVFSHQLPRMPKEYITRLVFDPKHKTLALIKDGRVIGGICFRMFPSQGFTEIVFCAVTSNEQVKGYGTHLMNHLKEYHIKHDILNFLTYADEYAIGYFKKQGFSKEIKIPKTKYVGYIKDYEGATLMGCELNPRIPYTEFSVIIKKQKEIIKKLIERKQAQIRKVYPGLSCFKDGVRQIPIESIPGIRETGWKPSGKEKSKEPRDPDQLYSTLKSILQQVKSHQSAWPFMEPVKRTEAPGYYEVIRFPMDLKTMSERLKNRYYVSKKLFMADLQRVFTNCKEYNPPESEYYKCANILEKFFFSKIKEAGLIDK

CN1C[C@H](Nc2cnn(C)c(=O)c2Br)C[C@H](c2ccccc2)C1
Ki: 1.26 nM
